{
  "source": "paper PMC4449006",
  "about": "“Targeting KRAS Oncogene in Colon Cancer Cells with 7-Carboxylate Indolo[3,2-b]quinoline Tri-Alkylamine Derivatives” (PLoS ONE, 2015)",
  "key": {"KRAS21 G-quadruplex DNA": {"tested_on": "KRAS21 G-quadruplex DNA", "experiment": "FRET melting assay, KRAS G-quadruplex DNA", "type": "binding", "details": "1 μM compound; standard deviation < 0.2°C", "description": "(§1) The capacity of compounds 1a-d, 2a-d and the standard G4 ligand TMPyP4 (Fig 1) to bind and stabilize KRAS [26] and HSP90A [27] G4 DNA structures as well as duplex DNA (T-loop) was evaluated by a Fluorescence Resonance Energy Transfer (FRET) melting assay. […] It was observed that the basicity of side chains correlates positively with thermal G4 stabilization of all DNA sequences up to an optimal pKa ~ 8.0–9.0 (Fig 2). Heterocyclic amines at the end of alkyl side chain (1b and 2b) appear to improve binding to G4s and complex stabilization compared to the di-ethylamine group (1a and 2a), which cannot be explained by differences in basicity between terminal groups. […] However, this was not observed for the isomeric pair 1a / 2a.\n(§2) All oligonucleotides were purchased from Eurofins MWG Synthesis GmbH, Germany. The labeled oligonucleotides used in the FRET assays had attached the donor fluorophore FAM (6-carboxyfluorescein) and the acceptor fluorophore TAMRA (6-carboxytetramethylrhodamine): KRAS21R (5’-FAM-[…]-TAMRA-3’); HSP90A (5’- [FAM]-[…]-[TAMRA]-3’); T-Loop (5’-FAM-[…]-TAMRA-3’). Each oligonucleotide was initially diluted to a storage solution at 100 μM in nuclease free water (not DEPC-treated), purchased from Ambion Applied Biosystems UK.\n(§3) The ability of IQ3A and TMPyP4 to stabilize G-quadruplex and duplex DNA sequences was investigated using a Fluorescence Resonance Energy Transfer (FRET) assay. Stock solution of the oligonucleotides sequences at 20 μM and subsequent dilutions were obtained from storage solutions diluting with K-cacodylate buffer pH = 7.4, containing 60 mM K^+ (10 mM potassium cacodylate, 50 mM KCl). The FRET probe sequences were diluted from stock to the correct concentration (0.4 μM) and then annealed by heating to 95°C for 10 min, followed by cooling to RT. Test compounds were prepared as 1 mM in 10% DMSO and 10% 1mM HCl in HPLC-grade water. The rest of the dilutions were performed using FRET buffer. Annealed DNA (50 μL) and compound solution (50 μL) were distributed across 96-well RT-PCR plates (BioRad; MJ Research, Waltham, MA, USA). Relevant controls were also performed to check for interference with the assay. Fluorescence readings were made on a DNA Engine Opticon (MJ Research) with excitation at 450–495 nm and detection at 515–545 nm, taken at intervals of 0.5°C in the range 30–100°C, with a constant temperature being maintained for 30 s prior to each reading to ensure a stable value. Experiments were performed in triplicate. Final analysis of the data was carried out with GraphPad Prism 5.0 software (GraphPad Software, Inc). The advanced curve-fitting function in GraphPad Prism was used for calculation of ΔT m values and associated standard deviations."}, "T-Loop duplex DNA": {"tested_on": "T-Loop duplex DNA", "experiment": "FRET melting assay, duplex DNA", "type": "binding", "details": "1 μM compound; standard deviation < 0.2°C", "description": "as §1, §2, §3"}, "HCT116 cells": {"tested_on": "HCT116 cells", "experiment": "MTS short-term cytotoxicity assay (72 h), HCT116", "type": "cell-based, human", "description": "(§4) The short-term effect of compounds at 72 h on cell growth was studied using colorectal carcinoma cell lines with different KRAS and TP53 genotypes: human colorectal carcinoma HCT116 (mut Kras, wild-type (wt) p53), and human metastatic colorectal adenocarcinoma SW620 (mut Kras, mut p53). In parallel, we also used the immortalized human embryonic kidney cell line HEK293T (wt Kras, wt p53) and normal human colon fibroblast cells CCD18co (wt Kras, wt p53).\n(§5) SW620 human colorectal adenocarcinoma cells (European Collection of Cell Cultures, ECACC, Porton Down, Wiltshire, UK), HEK293T human embryonic kidney cells (ATCC, LGC Standards, UK) HCT116 human colon carcinoma cells (ECACC), HCT116 p53(+/+) and p53(−/−) isogenic human colon cancer cells (GRCF Cell Center and Biorepository, the Johns Hopkins University, School of Medicine, Baltimore, MD, USA), were grown in Dulbecco’s modified Eagle’s medium (DMEM) supplemented with 10% fetal bovine serum, and 1% antibiotic/antimycotic (Invitrogen, Grand Island, NY, USA), CCD18co human colon fibroblasts (ATCC, CRL-1459) were grown in Minimum Essential Medium (MEM) supplemented with 10% fetal bovine serum, 1% antibiotic/antimycotic, 2 mM GlutaMAX, 0,1 mM Non-essential amino acids (NEAA) (Invitrogen) and […] Recombinant Human TNF-α (Peprotech, USA) and maintained at 37°C in a humidified atmosphere of 5% CO2.\n(§6) Cell viability was evaluated by the tetrazolium dye (MTS) Short-Term Cytotoxicity Assay. […] Following 72 h of compound exposure, cell viability was evaluated using the CellTiter 96 AQueous Non-Radioactive Cell Proliferation Assay (Promega, Madison, WI, USA), using 3-(4,5-dimethylthiazol-2-yl)-5-(3-carboxymethoxyphenyl)-2-(4-sulfophenyl)-2H-tetrazolium, inner salt (MTS) as previously described [35]. Cell viability data were expressed as mean ±SD from at least three independent experiments. IC50 and IC65 values were determined using GaphPad Prism v.5.00 (GraphPad Software). In selected experiments, cell viability was also assessed by trypan blue exclusion assay, and general cell death by LDH activity from cell culture supernatants."}, "SW620 cells": {"tested_on": "SW620 cells", "experiment": "MTS short-term cytotoxicity assay (72 h), SW620", "type": "cell-based", "description": "as §4, §5, §6"}, "HEK293T cells": {"tested_on": "HEK293T cells", "experiment": "MTS short-term cytotoxicity assay (72 h), HEK293T", "type": "cell-based, human", "description": "as §4, §5, §6"}, "CCD18co cells": {"tested_on": "CCD18co cells", "experiment": "MTS short-term cytotoxicity assay (72 h), CCD18co", "type": "cell-based", "details": "Homo sapiens, CCD-18Co, read-out: CCD18co IC50", "description": "as §4, §5, §6"}, "KRAS gene promoter": {"tested_on": "KRAS gene promoter", "experiment": "KRAS promoter activity Dual-Luciferase reporter assay", "type": "cell-based, human", "details": "HCT116 and SW620 cells, PGL-Ras0.5, 24 h, IC50 concentrations", "excerpt": "To validate that the mechanism of anti-proliferative activity and apoptotic induction by IQ3A compounds involves repression of KRAS gene expression as a result of the stabilization of G4-forming sequences present in the promoter, the effects of compounds on the KRAS gene promoter were directly evaluated by a luciferase reporter assay. For this purpose, we used two different size promoter constructs containing the G4 region of the KRAS gene promoter, cloned into the pGL3 Basic backbone: pGL-Ras0.5, pGL-Ras2.0, and pGL3 Basic empty (Firefly Luciferase negative control/no promoter), co-transfected together with pRL-TK (transfection efficiency normalization) into HEK293T cells, as a G4 negative control.\nKRAS promotor luciferase reporters respectively harbor 500 bp and 2000 bp of the human KRAS promotor region, kindly provided by Prof. Kim Nam-Soon. pGL3 Basic empty was used as negative control, and pRL-TK simultaneously for transfection efficiency normalization and as a G4 negative control. […] Finally, 72 h after compound incubation, cells were lysed and firefly and renilla luciferase activities were measured using Dual-Luciferase Reporter Assay System (Promega). […] Twenty-four h later, cells were lysed and renilla luciferase activities were measured and expressed as above. The results are expressed as the mean ± SEM fold-change compared to DMSO exposure, from three independent experiments."}, "KRAS protein": {"tested_on": "KRAS protein", "experiment": "KRAS protein steady-state expression by immunoblot", "details": "HCT116, 72 h, equitoxic (IC50) concentration"}, "KRAS mRNA": {"tested_on": "KRAS mRNA", "experiment": "KRAS mRNA steady-state levels by Taqman Real-time RT-PCR", "details": "HCT116, 72 h, equitoxic concentration"}, "[1]": {"details": "72 h, MTS, standard errors ≤ 0.1"}},
  "data": [
    {"smiles": "C[n+]1ccc(-c2c3nc(c(-c4cc[n+](C)cc4)c4ccc([nH]4)c(-c4cc[n+](C)cc4)c4ccc([nH]4)c(-c4cc[n+](C)cc4)c4nc2C=C4)C=C3)cc1", "note": "[TMPyP4, reference compound]", "values": [
      {"measurement": "ΔTm (°C) KRAS21 1 μM", "setting": "KRAS21 G-quadruplex DNA", "value": 25, "unit": "°C"},
      {"measurement": "ΔTm (°C) T-Loop 1 μM", "setting": "T-Loop duplex DNA", "value": 16, "unit": "°C"},
      {"measurement": "HCT116 IC65", "setting": "HCT116 cells; [1]", "value": 14.21, "unit": "µM"},
      {"measurement": "Selective index (SI) = IC50 CCD-18co / IC50 HCT116", "setting": "HCT116 cells; CCD18co vs HCT116", "value": 3.08},
      {"measurement": "IC50", "setting": "HCT116 cells; Homo sapiens, HCT-116, 72 h, read-out: HCT116 IC50", "value": 12.4, "unit": "µM"},
      {"measurement": "SW620 IC65", "setting": "SW620 cells; [1]", "value": "> 20", "unit": "µM"},
      {"measurement": "IC50", "setting": "SW620 cells; Homo sapiens, SW-620, 72 h, read-out: SW620 IC50", "value": "> 20", "unit": "µM"},
      {"measurement": "IC50", "setting": "HEK293T cells; Homo sapiens, HEK-293T, read-out: HEK293T IC50", "value": 2.97, "unit": "µM"},
      {"measurement": "HEK293T IC65", "setting": "HEK293T cells; MTS, standard errors ≤ 0.1", "value": 4.11, "unit": "µM"},
      {"measurement": "IC50", "setting": "CCD18co cells", "value": 38.2, "unit": "µM"},
      {"measurement": "reduction of KRAS promoter activity", "setting": "KRAS gene promoter", "value": "significantly reduce KRAS promoter activity"},
      {"measurement": "decrease of KRAS protein steady-state levels", "setting": "KRAS protein", "value": "~80", "unit": "%"},
      {"measurement": "reduction of KRAS mRNA steady-state levels", "setting": "KRAS mRNA", "value": "unable to reduce KRAS mRNA steady-state levels"}
    ]}
  ]
}
